≈ marks a conversion by molar mass, not a printed value. Non-standard residues stand in square brackets, D forms with d. Residues, ends and D or L forms follow the SMILES beside them. *: point of attachment. Tyr(3-Br) = N[C@@H](Cc1ccc(O)c(Br)c1)C(=O)O; Boc = CC(C)(C)OC(=O)*
Legend:
[1] = Cytotoxic activity, standard tetrazolium (MTT) assay on HaCaT cells; format: cell-based; conditions: human, HaCaT keratinocyte cells, 24 h incubation with compound, 1-200 µg/mL
Procedure: (§1) Cytotoxic properties of pure compounds were determined with a standard tetrazolium assay. B16 (6000 cells/well) and HaCaT (10,000 cells/well) cells were seeded in RPMI 1640 medium with 5% fetal calf serum (FCS) and antibiotic at day 0 in well-plate. Incubation was performed at 37 °C in an atmosphere of 5% CO2. After 24 h of incubation, compounds were added at different concentrations (1, 10, 50, 100, and 200 µg/mL), and the plate was incubated 24 h more (37 °C, 5% CO2). Cell growth and viability were then measured at 540 nm, using a MTT (3-[4,5-dimethylthiazol-2-yl]-2,5-diphenyltetrazolium bromide) assay. Each experiment was repeated at least three times.

[2] = Cytotoxic activity, standard tetrazolium (MTT) assay on B16 cells; format: cell-based, murine; conditions: mouse, B16 melanoma cells, 24 h incubation with compound, 1-200 µg/mL
Procedure: as §1

Row | SMILES | IC50 at 24 h [1] | IC50 at 24 h [2]
1 | O=C1N[C@@H](Cc2ccc(O)cc2)C(=O)N2CCC[C@H]12 [Compound 3, cyclo (D-Pro-L-Tyr)] | > 200 µg/mL | > 200 µg/mL
2 | O=Cc1c[nH]c2ccccc12 [Compound 8, indole-carboxaldehyde] | 79 ± 6 µg/mL (≈ 544 µM) | 72 ± 6 µg/mL (≈ 496 µM)
3 | O=C1N[C@@H](Cc2ccc(O)cc2)C(=O)N2CCC[C@@H]12 [Compound 2, cyclo (L-Pro-L-Tyr)] | > 200 µg/mL | > 200 µg/mL
4 | CC(C)[C@@H]1NC(=O)[C@@H]2CCCN2C1=O [Compound 4, cyclo (L-Pro-L-Val)] | > 200 µg/mL | > 200 µg/mL
5 | O=C1N[C@@H](Cc2ccc(O)c(Br)c2)C(=O)N2CCC[C@H]12 [Compound 6, cyclo (D-Pro-L-Br-Tyr)] | > 200 µg/mL | > 200 µg/mL
6 | O=C1N[C@@H](Cc2ccc(O)c(Br)c2)C(=O)N2CCC[C@@H]12 [Compound 7, cyclo (L-Pro-L-Br-Tyr)] | > 200 µg/mL | > 200 µg/mL
7 | COC(=O)[C@@H]1CCCN1C(=O)[C@H](Cc1ccc(O)c(Br)c1)NC(=O)OC(C)(C)C [Compound 13b, Methyl ((S)-3-(3-bromo-4-hydroxyphenyl)-2-((tert-butoxycarbonyl)amino)propanoyl)-L-prolinate] (Boc-[Tyr(3-Br)]-Pro-OMe) | 7 ± 2.5 µg/mL (≈ 14.9 µM) | 18 ± 5 µg/mL (≈ 38.2 µM)
8 | C[S+]([O-])CC[C@@H]1NC(=O)[C@@H]2CCCN2C1=O (stereo partly drawn) [Compound 1, cyclo (L-Pro-L-OMet)] | > 200 µg/mL | > 200 µg/mL
9 | CC(C)C[C@@H]1NC(=O)[C@@H]2CCCN2C1=O [Compound 5, cyclo (L-Pro-L-Leu)] | > 200 µg/mL | > 200 µg/mL
10 | COC(=O)[C@H]1CCCN1C(=O)[C@H](Cc1ccc(O)c(Br)c1)NC(=O)OC(C)(C)C [Compound 13a, Methyl ((S)-3-(3-bromo-4-hydroxyphenyl)-2-((tert-butoxycarbonyl)amino)propanoyl)-D-prolinate] (Boc-[Tyr(3-Br)]-[dP]-OMe) | > 200 µg/mL | > 200 µg/mL

— article PMC6155340, “Isolation and Structure Identification of Novel Brominated Diketopiperazines from Nocardia ignorata—A Lichen-Associated Actinobacterium” (Molecules : A Journal of Synthetic Chemistry and Natural …, 2017)
